Reference: patent publication US12084473B2, “β-D-2′-deoxy-2′-α-fluoro-2′-β-C-substituted-2-modified-N6-substituted purine nucleotides for HCV treatment” (Atea Pharmaceuticals, Inc., priority 2015, dated 2024)
Where two headings read alike, the source gives them in different places.

Experiments:
[1] = tested on: HCV genotype 1b luciferase reporter replicon; test: microbe, parasite or virus in culture; format: cell-based; details: for EC95: Hepatitis C virus, Huh-7 luc/neo ET cells, 72 hours, luciferase, read-out: HCV Replicon EC50/EC95: EC95
Procedure: (§1) The plates were cultured for 24 hours prior to the addition of compounds. Six serial one half log dilutions of the test articles (high test concentration of 100.0 μM or high test concentration of 1.0 μM) and human interferon-alpha2b (high test 10.0 U/ml) were prepared in cell culture medium and added to the cultured cells in triplicate wells for each dilution. Six wells in the test plates received medium alone as an untreated control. Following 72 hours of culture in the presence of compound, one of the plates was used for the determination of cytotoxicity by staining with XTT and the other for antiviral efficacy by determination of luciferase reporter activity. Cytotoxicity and efficacy data were collected and imported into a customized Excel workbook for determination of the TC50 and EC50 values. […] The y-axis is the percent of virus control and the x-axis is the concentration of drug in μM. […] The y-axis is the percent of virus control and the x-axis is the concentration of drug in M.

[2] = tested on: HCV genotype 1b luciferase reporter replicon; test: microbe, parasite or virus in culture; format: cell-based; details: Hepatitis C virus, HuH-7-Luc/Neo-ET, 72 h, read-out: HCV Replicon EC50/EC95: EC50
[3] = Cytotoxicity by XTT staining in replicon cells; details: human
Procedure: as §1

[4] = tested on: HCV Genotype 1b, NS5B Mutation C316N; test: microbe, parasite or virus in culture; format: cell-based; details: genotype 1b, NS5B C316N
Procedure: (§2) Various patient-derived HCV genotypes containing wild-type and resistance-associated variants were used to determine their relative replication sensitivity to test compounds. Replicon resistance test vectors (RTVs) containing the NS5B genomic regions were prepared using viral RNA isolated from plasma of HCV patients. Each NS5B region was amplified by reverse-transcription polymerase chain reaction and cloned into an HCV replicon RTV which was then transferred by electroporation into Huh-7 cells.

[5] = tested on: HCV Genotype 1a, NS5B Mutation L159F and S282T; test: microbe, parasite or virus in culture; format: cell-based; details: genotype 1a, NS5B L159F and S282T
Procedure: as §2

[6] = tested on: HCV Genotype 3a-2, NS5B Mutation none; test: microbe, parasite or virus in culture; format: cell-based; details: genotype 3a-2, no NS5B mutation
Procedure: as §2

[7] = tested on: HCV Genotype 2b, NS5B Mutation none; test: microbe, parasite or virus in culture; format: cell-based; details: genotype 2b, no NS5B mutation
Procedure: as §2

[8] = tested on: HCV Genotype 4a, NS5B Mutation none; test: microbe, parasite or virus in culture; format: cell-based; details: genotype 4a, no NS5B mutation
Procedure: as §2

[9] = tested on: HCV Genotype 2a, NS5B Mutation none; test: microbe, parasite or virus in culture; format: cell-based; details: genotype 2a, no NS5B mutation
Procedure: as §2

[10] = tested on: HCV Genotype 1b, NS5B Mutation none; test: microbe, parasite or virus in culture; format: cell-based; details: genotype 1b, no NS5B mutation
Procedure: as §2

[11] = tested on: HCV Genotype 4d, NS5B Mutation none; test: microbe, parasite or virus in culture; format: cell-based; details: genotype 4d, no NS5B mutation
Procedure: as §2

[12] = tested on: HCV Genotype 3a-1, NS5B Mutation none; test: microbe, parasite or virus in culture; format: cell-based; details: genotype 3a-1, no NS5B mutation
Procedure: as §2

[13] = tested on: HCV Genotype 1a, NS5B Mutation L159F; test: microbe, parasite or virus in culture; format: cell-based; details: genotype 1a, NS5B L159F
Procedure: as §2

[14] = tested on: HCV Genotype 1a, NS5B Mutation none; test: microbe, parasite or virus in culture; format: cell-based; details: genotype 1a, no NS5B mutation
Procedure: as §2

HCV wild type replicon = test: microbe, parasite or virus in culture; format: cell-based; details: NS5B Mutation None, transient assay, 96-hr
Procedure: (§3) A transient transfection assay was performed to determine the sensitivity of the […] of HCV to test compounds. Huh-7 cells were electroporated in the presence of RNA transcribed from wild type or S282T HCV replicon plasmids from the T7 promoter. The transfected cells were seeded in to 96-well plates at 7.5×10^3 cells per well in Dulbecco's Modified Eagle's medium. After 24 hr of incubation, medium was removed and replaced with fresh medium containing no or various concentrations of test compounds. Following an additional 96-hr incubation, the anti-HCV activity was measured by luciferase endpoint with Britelite™ Plus luminescence reporter gene kit (Perkin Elmer, Shelton, CT). Duplicate plates were treated and incubated in parallel for assessment of cellular toxicity by staining with the tetrazolium dye XTT.

HCV S282T replicon = test: microbe, parasite or virus in culture; format: cell-based; details: NS5B Mutation S282T, transient assay, 96-hr
Procedure: as §3

Huh-7 luc/neo ET cells = test: Cytotoxicity by XTT staining in replicon cells
Procedure: as §1

[15] = tested on: micro-patterned human hepatocyte co-cultures; test: Human Hepatocyte Co-Cultures (HepatoPac): cytotoxicity and hepatocyte health; format: cell-based
Procedure: Cytotoxicity and hepatocyte health were assessed in triplicate by measuring ALT leakage, urea production, albumin secretion and cellular ATP contents in micro-patterned human hepatocyte co-cultures (HepatoPac®, Hepregen Corporation) prepared by seeding cryopreserved human hepatocytes (single donor) and 3T3 J2 mouse fibroblasts in microtiter plates according to procedures established by Hepregen. Culture media was replaced with fresh media containing TA, test article, (0, 1, 10 or 30 μM) every 2 or 3 days through day 16. […] Cellular ATP levels were measured on days 9 and 21. ATP signals in stromal-only control cultures (murine 3T3 fibroblasts) were subtracted from those of human HepatoPac co-cultures to obtain hepatocyte-specific effects. See, Table 4, 5 and 6 below.

Compound: CC(C)OC(=O)[C@H](C)N[P@@](=O)(OCC1O[C@@H](n2cnc3c(N(C)C)nc(N)nc32)[C@](C)(F)[C@@H]1O)Oc1ccccc1 (stereo partly drawn) [Compound 26, isopropyl ((((R)-(2R,3R,4R,5R)-5-(2-amino-6-(dimethylamino)-9H-purin-9-yl)-4-fluoro-3-hydroxy-4-methyltetrahydrofuran-2-yl)methoxy)-phenoxy-phosphoryl)-L-alaninate]
- EC95 [1]: 57 nM
- EC50 [2]: 35.1 nM
- CC50 at 72 h [3]: > 100000 nM

Compound: CC(C)OC(=O)[C@H](C)N[P@@](=O)(OCC1O[C@@H](n2cnc3c(N(C)C4CC4)nc(N)nc32)[C@](C)(F)[C@@H]1O)Oc1ccccc1 (stereo partly drawn) [Compound 28, isopropyl ((((R)-(2R,3R,4R,5R)-5-(2-amino-6-(methylcyclopropanamino)-9H-purin-9-yl)-4-fluoro-3-hydroxy-4-methyltetrahydrofuran-2-yl)methoxy)-phenoxy-phosphoryl)-L-alaninate]
- EC95 [1]: 76 nM
- EC50 [2]: 14 nM
- CC50 at 72 h [3]: > 100000 nM

Compound: C#C[C@@]1(F)[C@H](O)[C@@H](CO)O[C@H]1n1cnc2c(N(C)C)nc(N)nc21 [Compound 41]
- EC95 [1]: 25100 nM
- EC50 [2]: 508 nM
- CC50 at 72 h [3]: 21800 nM

Compound: C#C[C@@]1(F)[C@H](O)[C@@H](CO)O[C@H]1n1cnc2c(NC)nc(N)nc21 [Compound 42]
- EC95 [1]: 20400 nM
- EC50 [2]: 4180 nM
- CC50 at 72 h [3]: > 100000 nM

Compound: C#C[C@@]1(F)[C@H](O)[C@@H](CO)O[C@H]1n1cnc2c(N(C)C3CC3)nc(N)nc21 [Compound 43]
- EC95 [1]: 24700 nM
- EC50 [2]: 6430 nM
- CC50 at 72 h [3]: 21600 nM

Compound: C#C[C@@]1(F)[C@H](O)C(COP(=O)(N[C@@H](C)C(=O)OC(C)C)Oc2ccccc2)O[C@H]1n1cnc2c(N(C)C)nc(N)nc21 (stereo partly drawn) [Compound 45, isopropyl ((((R,S)-(2R,3R,4R,5R)-5-(2-amino-6-dimethylamino-9H-purin-9-yl)-4-fluoro-3-hydroxy-4-ethynyltetrahydrofuran-2-yl)methoxy)-phenoxy-phosphoryl)-L-alaninate]
- EC95 [1]: 876 nM
- EC50 [2]: 160 nM
- CC50 at 72 h [3]: 680 nM

Compound: C#C[C@@]1(F)[C@H](O)C(COP(=O)(N[C@@H](C)C(=O)OC(C)C)Oc2ccccc2)O[C@H]1n1cnc2c(NC)nc(N)nc21 (stereo partly drawn) [Compound 46, isopropyl ((((R,S)-(2R,3R,4R,5R)-5-(2-amino-6-methylamino-9H-purin-9-yl)-4-fluoro-3-hydroxy-4-ethynyltetrahydrofuran-2-yl)methoxy)-phenoxy-phosphoryl)-L-alaninate]
- EC95 [1]: 961 nM
- EC50 [2]: 224 nM
- CC50 at 72 h [3]: > 100000 nM

Compound: C#C[C@@]1(F)[C@H](O)C(COP(=O)(N[C@@H](C)C(=O)OC(C)C)Oc2ccccc2)O[C@H]1n1cnc2c(N(C)C3CC3)nc(N)nc21 (stereo partly drawn) [Compound 47, isopropyl ((((R,S)-(2R,3R,4R,5R)-5-(2-amino-6-(N-methylcyclopropylamino)-9H-purin-9-yl)-4-fluoro-3-hydroxy-4-ethynyltetrahydrofuran-2-yl)methoxy)-phenoxy-phosphoryl)-L-alaninate]
- EC95 [1]: 1720 nM
- EC50 [2]: 338 nM
- CC50 at 72 h [3]: 1680 nM

Compound: sofosbuvir [reference compound]
- IC95 Value [4]: 472.8 nM
- IC50 ([4]; read-out: IC50 Value): 73.9 nM
- IC95 Value [5]: 16950.9 nM
- IC50 ([5]; read-out: IC50 Value): 1620 nM
- IC95 Value [6]: 808.1 nM
- IC50 ([6]; read-out: IC50 Value): 124 nM
- IC95 Value [7]: 295.3 nM
- IC50 ([7]; read-out: IC50 Value): 44.8 nM
- IC95 Value [8]: 681.4 nM
- IC50 ([8]; read-out: IC50 Value): 74.9 nM
- IC95 Value [9]: 195.1 nM
- IC50 ([9]; read-out: IC50 Value): 22.5 nM
- Fold Change in IC50 from Sofosbuvir [10]: 1.0
- IC95 Value [10]: 642.2 nM
- IC50 ([10]; read-out: IC50 Value): 86 nM
- IC95 Value [11]: 1019.7 nM
- IC50 ([11]; read-out: IC50 Value): 93.7 nM
- IC95 Value [12]: 689.8 nM
- IC50 ([12]; read-out: IC50 Value): 126 nM
- IC95 Value [13]: 1067.5 nM
- IC50 ([13]; read-out: IC50 Value): 115 nM
- IC95 Value [14]: 507.7 nM
- IC50 ([14]; read-out: IC50 Value): 62.7 nM
- IC95 Value (HCV wild type replicon): 218 nM
- IC50 (HCV wild type replicon; read-out: IC50 Value): 36.4 nM
- IC95 Value (HCV S282T replicon): >1000 nM
- IC50 (HCV S282T replicon; read-out: IC50 Value): 278 nM
- EC50 ([1]; read-out: EC50 in a replicon assay): 53 nM
- TC50 (Huh-7 luc/neo ET cells): greater than one hundred
- IC50 ([15]; Day 9, read-out: Effect on Cellular ATP Concentrations, 50% Inhibitory Concentration (IC50)): 8600 nM
- IC50 ([15]; Day 21, read-out: Effect on Cellular ATP Concentrations, 50% Inhibitory Concentration (IC50)): 2300 nM
- IC50 ([15]; Table 5, Day 2, read-out: Effect on Albumin Secretion, 50% Inhibitory Concentration (IC50)): > 30000 nM
- IC50 ([15]; Table 5, Day 5, read-out: Effect on Albumin Secretion, 50% Inhibitory Concentration (IC50)): 19500 nM
- IC50 ([15]; Table 5, Day 7, read-out: Effect on Albumin Secretion, 50% Inhibitory Concentration (IC50)): 10900 nM
- IC50 ([15]; Table 5, Day 9, read-out: Effect on Albumin Secretion, 50% Inhibitory Concentration (IC50)): 9300 nM
- IC50 ([15]; Table 6, Day 2, read-out: Effect on Albumin Secretion, 50% Inhibitory Concentration (IC50)): > 30000 nM
- IC50 ([15]; Table 6, Day 5, read-out: Effect on Albumin Secretion, 50% Inhibitory Concentration (IC50)): > 30000 nM
- IC50 ([15]; Table 6, Day 7, read-out: Effect on Albumin Secretion, 50% Inhibitory Concentration (IC50)): > 30000 nM
- IC50 ([15]; Table 6, Day 9, read-out: Effect on Albumin Secretion, 50% Inhibitory Concentration (IC50)): 12100 nM
- IC50 ([15]; Table 6, Day 12, read-out: Effect on Albumin Secretion, 50% Inhibitory Concentration (IC50)): 6800 nM
- IC50 ([15]; Table 6, Day 16, read-out: Effect on Albumin Secretion, 50% Inhibitory Concentration (IC50)): 2700 nM
- IC50 ([15]; Table 6, Day 21, read-out: Effect on Albumin Secretion, 50% Inhibitory Concentration (IC50)): 2300 nM
- cytotoxicity to human co-cultured hepatocytes (in words) ([15]; text b588): more cytotoxicity than AT-511
